Patent US20150158845A1, “5-HALOGEN-SUBSTITUTED OXINDOLE DERIVATIVES AND USE THEREOF FOR TREATING VASOPRESSIN-DEPENDENT DISEASES” (ABBVIE DEUTSCHLAND GMBH & CO. KG, priority 2007, published 2015)

Experiments:
[1] = target: T1, human vasopressin V1b receptor (Homo sapiens, UniProt P47901); assay: Vasopressin V1b receptor binding assay; details: membranes from CHO-K1 cells with human V1b receptor, 1.5 nM 3H-AVP
T1 construct: expressed in transfected cells; host or cells: CHO-K1 (clone 3H2; cell line hV1b-3H2_CHO), membrane preparation
T1 sequence (P47901 1-424): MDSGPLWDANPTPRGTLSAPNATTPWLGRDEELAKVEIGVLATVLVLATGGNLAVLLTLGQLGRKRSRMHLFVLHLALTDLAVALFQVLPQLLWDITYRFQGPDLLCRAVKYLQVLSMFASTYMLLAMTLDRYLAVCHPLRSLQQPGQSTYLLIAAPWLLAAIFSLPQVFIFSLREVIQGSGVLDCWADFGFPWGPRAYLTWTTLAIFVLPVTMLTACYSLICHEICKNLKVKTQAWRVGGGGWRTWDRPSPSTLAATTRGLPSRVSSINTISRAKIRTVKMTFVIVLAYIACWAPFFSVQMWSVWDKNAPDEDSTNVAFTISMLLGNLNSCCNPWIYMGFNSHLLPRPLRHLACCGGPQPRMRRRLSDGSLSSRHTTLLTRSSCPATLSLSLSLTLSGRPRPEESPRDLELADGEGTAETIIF
Procedure: 1. Vasopressin V1b Receptor Binding Assay:
The substance concentration was further diluted 1:5 in the assay mixture (2% DMSO in the mixture).
The nonspecific binding was determined with 1 M AVP (Bachem # H1780). All determinations were carried out as triplicate determinations.

[2] = Determination of the microsomal half-life / microsomal clearance; assay type: in vitro ADME; details: pH 7.4; human liver microsomes, 0.5 μM test substance, 0.25 mg microsomal protein/ml
Procedure: 5. Determination of the Microsomal Half-Life:
The metabolic stability of the compounds of the invention was determined in the following assay.
The test substances were incubated in a concentration of 0.5 μM as follows: 0.5 μM test substance are preincubated together with liver microsomes from different species (from rat, human or other species) (0.25 mg of microsomal protein/ml) in 0.05 M potassium phosphate buffer of pH 7.4 in microtiter plates at 37° C. for 5 min. The reaction is started by adding NADPH (1 mg/mL). After 0, 5, 10, 15, 20 and 30 min, 50 μl aliquots are removed, and the reaction is immediately stopped and cooled with the same volume of acetonitrile. The samples are frozen until analyzed. The remaining concentration of undegraded test substance is determined by MSMS. The half-life (T½) is determined from the gradient of the signal of test substance/unit time plot, it being possible to calculate the half-life of the test substance, assuming first order kinetics, from the decrease in the concentration of the compound with time. The microsomal clearance (mCl) is calculated from mCl=In2/T½/(content of microsomal protein in mg/ml)×1000 […] (modified from references: Di, The Society for Biomoleculur Screening, 2003, 453-462; Obach, DMD, 1999 vol 27. N 11, 1350-1359).

[3] = target: human vasopressin V1a receptor (Homo sapiens, UniProt P37288); assay: Vasopressin V1a receptor binding assay; details: selectivity: quotient of Ki at human V1a and Ki at human V1b
Chain of human vasopressin V1a receptor (P37288 whole entry): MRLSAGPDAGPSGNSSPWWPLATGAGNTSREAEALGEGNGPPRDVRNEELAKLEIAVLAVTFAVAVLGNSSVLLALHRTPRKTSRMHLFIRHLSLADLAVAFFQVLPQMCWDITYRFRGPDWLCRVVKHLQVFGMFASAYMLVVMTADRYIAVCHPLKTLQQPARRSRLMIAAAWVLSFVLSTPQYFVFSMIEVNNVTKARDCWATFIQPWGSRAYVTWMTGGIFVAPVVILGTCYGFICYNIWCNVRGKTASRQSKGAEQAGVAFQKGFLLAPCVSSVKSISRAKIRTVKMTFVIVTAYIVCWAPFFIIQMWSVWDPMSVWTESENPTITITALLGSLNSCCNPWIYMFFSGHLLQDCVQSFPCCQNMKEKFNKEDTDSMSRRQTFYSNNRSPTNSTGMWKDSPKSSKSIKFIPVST

CCOc1ncccc1C1(NC(=O)N2CCC(N3CCN(CC)CC3)CC2)C(=O)N(S(=O)(=O)c2ccc(OC)cc2OC)c2ccc(Cl)cc21 (single isomer, unassigned; (+)) [Example 8B, (+)-4-(4-Ethylpiperazin-1-yl)piperidine-1-[5-chloro-1-(2,4-dimethoxyphenylsulfonyl)-3-(2-ethoxypyridin-3-yl)-2-oxo-2,3-dihydro-1H-indol-3-yl]carboxamide]
Ki [1]: < 1 nM | microsomal CLint at 0.5 μM [2]: 75 to 100 µL/min/mg | Ki(h-V1a)/Ki(h-V1b) [3]: +++ (>75)
